Assays:
[1] = Flavor profile of Luo Han Guo solution with added verbascoside or isoverbascoside; details: Luo Han Guo solution (120 ppm)
Procedure: A Luo Han Guo (Biovittoria Ltd., New Zealand) solution was prepared in water (120 ppm). Verbascoside and isoverbascoside solutions were prepared as above (EXAMPLE II). The flavor profile of the Luo Han Guo solution with added verbascoside and isoverbascoside is reported in the following: […]

[2] = Flavor profile of sucrose solution with added verbascoside or isoverbascoside; details: sucrose solution (4%)
Procedure: A sucrose solution (4%) was prepared in water. Each of verbascoside and isoverbascoside solutions of different concentrations was prepared in ethanol solution in water (50%). Verbascoside and isoverbascoside were evaluated at 1 and 200 ppm, respectively.
The flavor profile of the sucrose solution with added verbascoside and isoverbascoside is reported in the following: […]

SMILES | overall effect (summary) [1] | overall effect (summary) [2]
CC1OC(OC2C(O)C(COC(=O)/C=C/c3ccc(O)c(O)c3)OC(OCCc3ccc(O)c(O)c3)C2O)C(O)C(O)C1O (stereo not shown) [Isoverbascoside, isoverbascoside] | enhanced overall mouthfeel and suppressed Luo Han Guo's lingering off-taste | enhanced overall mouthfeel
CC1OC(OC2C(O)C(OCCc3ccc(O)c(O)c3)OC(CO)C2OC(=O)/C=C/c2ccc(O)c(O)c2)C(O)C(O)C1O [Verbascoside, (E)-2-(3,4-dihydroxyphenyl)ethyl 3-O-(6-deoxy-α-L-mannopyranosyl)-4-[3-(3,4-dihydroxyphenyl)-2-propenoate]-β-D-Glucopyranoside] | exhibited particular effect in sweetness enhancement | exhibited particular effect in sweetness enhancement
